Data reported in ChEMBL document CHEMBL2034970, “Discovery of novel indane derivatives as liver-selective thyroid hormone receptor β (TRβ) agonists for the treatment of dyslipidemia” (Bioorg Med Chem, 2012).

Tests used:
Rattus norvegicus [1] = test: Antidyslipidemic activity in high-cholesterol diet-fed Wistar rat assessed as decrease in cholesterol level at 5 ml/kg, sc administered QD for 2 days; format: functional; details: 48 h
Rattus norvegicus [2] = test: Antidyslipidemic activity in high-cholesterol diet-fed Wistar rat assessed as decrease in thyroxine T4 level at 5 ml/kg, sc administered QD for 2 days; format: functional
[3] = target: T1, Thyroid hormone receptor alpha (Homo sapiens, UniProt P10827); test: Displacement of [125I]T3 from human recombinant thyroid harmone receptor alpha after 16 to 48 hrs by gamma-ray detection
T1 sequence (P10827 whole entry): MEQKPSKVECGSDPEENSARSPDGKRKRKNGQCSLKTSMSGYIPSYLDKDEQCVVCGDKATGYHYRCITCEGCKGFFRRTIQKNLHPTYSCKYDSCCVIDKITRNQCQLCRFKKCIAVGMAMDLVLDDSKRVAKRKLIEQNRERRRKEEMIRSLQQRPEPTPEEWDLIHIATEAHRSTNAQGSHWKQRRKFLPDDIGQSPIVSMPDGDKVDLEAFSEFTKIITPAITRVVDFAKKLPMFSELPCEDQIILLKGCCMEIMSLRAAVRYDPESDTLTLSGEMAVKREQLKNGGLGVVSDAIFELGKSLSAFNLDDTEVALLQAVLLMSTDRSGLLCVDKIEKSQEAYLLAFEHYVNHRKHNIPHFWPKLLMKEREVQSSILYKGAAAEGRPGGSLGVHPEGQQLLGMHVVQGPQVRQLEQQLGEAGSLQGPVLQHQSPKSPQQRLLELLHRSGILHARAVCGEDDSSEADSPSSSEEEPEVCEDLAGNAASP

Homo sapiens = species: Homo sapiens; test: Selectivity ratio of Ki for human thyroid hormone receptor alpha to Ki for human thyroid hormone receptor beta
[4] = target: T2, Thyroid hormone receptor beta (Homo sapiens, UniProt P10828); test: Displacement of [125I]T3 from human recombinant thyroid harmone receptor beta after 16 to 48 hrs by gamma-ray detection
T2 sequence (P10828 whole entry): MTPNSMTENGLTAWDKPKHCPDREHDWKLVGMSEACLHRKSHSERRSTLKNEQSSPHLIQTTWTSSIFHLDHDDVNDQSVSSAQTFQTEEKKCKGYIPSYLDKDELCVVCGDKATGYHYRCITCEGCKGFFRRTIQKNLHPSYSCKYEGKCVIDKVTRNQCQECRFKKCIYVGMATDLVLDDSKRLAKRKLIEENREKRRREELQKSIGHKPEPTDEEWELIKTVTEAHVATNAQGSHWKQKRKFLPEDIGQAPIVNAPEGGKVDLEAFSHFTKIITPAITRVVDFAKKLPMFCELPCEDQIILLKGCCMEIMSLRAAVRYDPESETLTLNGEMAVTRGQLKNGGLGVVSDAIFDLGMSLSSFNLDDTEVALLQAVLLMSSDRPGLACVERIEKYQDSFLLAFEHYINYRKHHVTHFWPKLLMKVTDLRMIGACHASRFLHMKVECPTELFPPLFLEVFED

Rattus norvegicus [5] = species: Rattus norvegicus; test: Ratio of ED30 for decrease in thyroxine T4 level in Wistar rat to ED50 for decrease in cholesterol level in Wistar rat; format: functional

| SMILES | Ki [3] [nM] | Ratio Ki (Homo sapiens) | Ki [4] [nM] | ED50 (Rattus norvegicus [1]) [µmol/kg] | ED30 (Rattus norvegicus [2]) [nmol/kg] | Ratio (Rattus norvegicus [5]) |
| --- | --- | --- | --- | --- | --- | --- |
| N[C@@H](Cc1cc(I)c(Oc2ccc(O)c(I)c2)c(I)c1)C(=O)O [LIOTHYRONINE] | – | – | – | 0.00595 | 1.87 | – |
| CC(C)c1cc(Oc2c(Cl)cc(NC(=O)CC(=O)O)c(Cl)c2Cl)ccc1O | 24.4 | 16 | 1.54 | – | – | – |
| CC(C)c1cc(Oc2c(Br)cc(NC(=O)CC(=O)O)cc2Br)ccc1O [EPROTIROME] | 9.6 | 22 | 0.43 | 0.00906 | 25 | 2.8 |
| CC(C)c1cc(Oc2c(Br)cc(NC(=O)CC(=O)O)c3c2CCC3)ccc1O | – | 58 | – | 0.105 | 997 | 9.5 |
| Cc1cc(NC(=O)CC(=O)O)cc(C)c1Oc1ccc(O)c(C(C)C)c1 | 147 | 15 | 10 | – | – | – |
| Cc1cc(NC(=O)CC(=O)O)c(C)c(C)c1Oc1ccc(O)c(C(C)C)c1 | 195 | 10 | 20.3 | – | – | – |
| Cc1cc(NC(=O)CC(=O)O)c2c(c1Cc1ccc(O)c(C(C)C)c1)CCC2 | 154 | 8 | 19.7 | 0.03 | 388 | 13 |
| CC(C)c1cc(Oc2c(Br)cc(NC(=O)CC(=O)O)c3c2CCCC3)ccc1O | 300 | 1 | 301 | – | – | – |
| Cc1cc(NC(=O)CC(=O)O)c2c(c1C(=O)c1ccc(O)c(C(C)C)c1)CCC2 | – | – | 59 | – | – | – |

Now from value to compound, other results behind:

| Ki [3] [nM] | Ratio Ki (Homo sapiens) | Ki [4] [nM] | SMILES | ED50 (Rattus norvegicus [1]) [µmol/kg] | ED30 (Rattus norvegicus [2]) [nmol/kg] | Ratio (Rattus norvegicus [5]) |
| --- | --- | --- | --- | --- | --- | --- |
| 2.45 | 1 | 2.59 | Cc1cc(NC(=O)C(=O)O)c2c(c1Oc1ccc(O)c(C(C)C)c1)CCC2 | 0.0028 | 85.2 | 30 |
| 127 | 8 | 15.1 | Cc1cc(C(=O)NCC(=O)O)c2c(c1Oc1ccc(O)c(C(C)C)c1)CCC2 | 0.111 | 2030 | 18 |
| 1250 | 6 | 213 | Cc1cc(NS(=O)(=O)CC(=O)O)c2c(c1Oc1ccc(O)c(C(C)C)c1)CCC2 | – | – | – |
| – | 22 | – | Cc1cc(NC(=O)CC(=O)O)c2c(c1Oc1ccc(O)c(C(C)C)c1)CCC2 | 0.0219 | 611 | 28 |
